Data on 22 compounds can be found in patent US20160002248A1, “GLS1 INHIBITORS FOR TREATING DISEASE” (Board of Regents, The University of Texas System, priority 2014, published 2016).

The target of assay [1] is T1, purified recombinant human GAC (GLS1) (Homo sapiens, UniProt O94925).
T1 sequence (O94925 55-598 isoform O94925-3 limits assumed): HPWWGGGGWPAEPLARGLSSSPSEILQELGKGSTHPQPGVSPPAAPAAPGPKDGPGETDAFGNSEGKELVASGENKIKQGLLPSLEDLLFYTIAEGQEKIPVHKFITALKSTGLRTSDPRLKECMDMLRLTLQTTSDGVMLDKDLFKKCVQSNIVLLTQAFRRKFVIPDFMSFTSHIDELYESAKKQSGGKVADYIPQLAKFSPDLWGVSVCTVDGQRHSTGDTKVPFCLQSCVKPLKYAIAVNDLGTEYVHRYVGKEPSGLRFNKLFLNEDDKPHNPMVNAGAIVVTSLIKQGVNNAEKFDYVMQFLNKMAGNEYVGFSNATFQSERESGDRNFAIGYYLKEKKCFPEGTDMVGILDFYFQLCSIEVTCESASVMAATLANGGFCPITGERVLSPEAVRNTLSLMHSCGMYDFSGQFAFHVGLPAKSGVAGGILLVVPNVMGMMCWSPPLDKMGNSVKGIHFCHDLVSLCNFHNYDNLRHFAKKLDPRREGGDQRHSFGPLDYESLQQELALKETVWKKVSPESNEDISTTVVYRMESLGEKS
Description: GLS1 Enzymatic Activity Assay (dual-coupled enzymatic assay). The class given is biochemical. Summed up: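 GAC activity measured by coupling glutamate to glutamate oxidase and HRP, generating resorufin from Amplex UltraRed. Enzyme (2 nM) preincubated with 50 mM potassium phosphate 10 min at room temperature, then inhibitor 10 min; 1 mM glutamine substrate, 1% DMSO. Fluorescence 530/590 nm, kinetic or 20-min endpoint; IC50 from four-parameter logistic fit.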

The test system of a further assay is A549 cells. Nature of the assay: Proliferation Assay (A549 cell viability, Cell Titer Fluor). The class given is cell-based. To be noted: Homo sapiens, 72 hours. In outline: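 1000 A549 cells/well, RPMI 1640/10% dialyzed FBS, 24 h attach; compound 72 h, 0.5% DMSO, 37 °C/5% CO2; Cell Titer Fluor fluorescence; EC50 via 4-parameter logistic.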

Structures are written as SMILES.

As for `O=C(NCc1ccccn1)c1cn(CCCCc2cc3c(Cc4ccccc4)c(C4CC4)[nH]c3nn2)nn1` [Example 102, 1-(4-{5-benzyl-6-cyclopropyl-7H-pyrrolo[2,3-c]pyridazin-3-yl}butyl)-N-(pyridin-2-ylmethyl)-1H-1,2,3-triazole-4-carboxamide], the half-inhibitory concentration (IC50) in assay [1] was less than 100 nM. This compound yielded an EC50 with A549 cells of 500 to 5000 nM.

With `N#Cc1cccc(Cc2c(C3CC3)[nH]c3nnc(CCCCn4cc(C(=O)NCc5ccccn5)nn4)cc23)c1` [Example 103, 1-(4-{5-[(3-cyanophenyl)methyl]-6-cyclopropyl-7H-pyrrolo[2,3-c]pyridazin-3-yl}butyl)-N-(pyridin-2-ylmethyl)-1H-1,2,3-triazole-4-carboxamide], the half-inhibitory concentration (IC50) in assay [1] is less than 100 nM. The compound further had an EC50 in the assay on A549 cells of 500 to 5000 nM.

Consider `O=C(NCc1ccccn1)c1cn(CCCCc2cc3c(Cc4ccccc4F)c(C4CC4)[nH]c3nn2)nn1` [Example 104, 1-(4-{6-cyclopropyl-5-[(2-fluorophenyl)methyl]-7H-pyrrolo[2,3-c]pyridazin-3-yl}butyl)-N-(pyridin-2-ylmethyl)-1H-1,2,3-triazole-4-carboxamide], for which the IC50 in assay [1] was less than 100 nM. In addition, the EC50 in the assay with A549 cells lay within 500 to 5000 nM.

For the compound `CC(C)(C)OC(=O)N1CC(c2cc3cc(CCCCn4cc(C(=O)NCc5cccc(OC(F)(F)F)c5)nn4)nnc3[nH]2)C1` [Example 105, tert-butyl 3-(3-{4-[4-({[3-(trifluoromethoxy)phenyl]methyl}carbamoyl)-1H-1,2,3-triazol-1-yl]butyl}-7H-pyrrolo[2,3-c]pyridazin-6-yl)azetidine-1-carboxylate], the half-maximal inhibitory concentration (IC50) in assay [1] was less than 100 nM. The compound further displayed an EC50 in the assay on A549 cells of less than 100 nM.

As for `O=C(NCc1ccccn1)c1cn(CCCCc2cc3c(Cc4ccc(Cl)cc4)c(C4CC4)[nH]c3nn2)nn1` [Example 106, 1-(4-{5-[(4-chlorophenyl)methyl]-6-cyclopropyl-7H-pyrrolo[2,3-c]pyridazin-3-yl}butyl)-N-(pyridin-2-ylmethyl)-1H-1,2,3-triazole-4-carboxamide], in assay [1], the IC50 is less than 100 nM. Besides, the EC50 in the assay on A549 cells lay in the range of 100 to 500 nM.

Take `O=C(NCc1cccc(OC(F)(F)F)c1)c1cn(CCCCc2cc3cc(C4CNC4)[nH]c3nn2)nn1` [Example 107, 1-{4-[6-(azetidin-3-yl)-7H-pyrrolo[2,3-c]pyridazin-3-yl]butyl}-N-{[3-(trifluoromethoxy)phenyl]methyl}-1H-1,2,3-triazole-4-carboxamide]: the IC50 in assay [1] was in the range of 100 to 500 nM. This compound displayed a half-maximal effective concentration (EC50) with A549 cells of 500 to 5000 nM.

For the compound `O=C(NCc1ccccn1)c1cn(CCCCc2cc3c(-c4ccccc4)c(C4CC4)[nH]c3nn2)nn1` [Example 108, 1-(4-{6-cyclopropyl-5-phenyl-7H-pyrrolo[2,3-c]pyridazin-3-yl}butyl)-N-(pyridin-2-ylmethyl)-1H-1,2,3-triazole-4-carboxamide], the IC50 in assay [1] was less than 100 nM. Besides, the EC50 in the assay with A549 cells was 100 to 500 nM.

Take `Cc1c(C2CC2)[nH]c2nnc(CCCCn3cc(C(=O)NCc4ccccn4)nn3)cc12` [Example 109, 1-(4-(6-cyclopropyl-5-methyl-7H-pyrrolo[2,3-c]pyridazin-3-yl)butyl)-N-(pyridin-2-ylmethyl)-1H-1,2,3-triazole-4-carboxamide]: in assay [1], the concentration for half-maximal inhibition (IC50) is 100 to 500 nM. The same compound came in with a half-maximal effective concentration (EC50) in the assay with A549 cells of 500 to 5000 nM.

On to `CC(C)Cc1c(C2CC2)[nH]c2nnc(CCCCn3cc(C(=O)NCc4ccccn4)nn3)cc12` [Example 110, 1-{4-[6-cyclopropyl-5-(2-methylpropyl)-7H-pyrrolo[2,3-c]pyridazin-3-yl]butyl}-N-(pyridin-2-ylmethyl)-1H-1,2,3-triazole-4-carboxamide], for which, in assay [1], the IC50 is less than 100 nM. This compound displayed an EC50 with A549 cells of 100 to 500 nM.

Consider `CC(C)(C)OC(=O)N1CC(c2cc3cc(CCCCn4cc(C(=O)NCc5cc(OC(F)(F)F)ccc5F)nn4)nnc3[nH]2)C1` [Example 111, tert-butyl 3-(3-(4-(4-((2-fluoro-5-(trifluoromethoxy)benzyl)carbamoyl)-1H-1,2,3-triazol-1-yl)butyl)-7H-pyrrolo[2,3-c]pyridazin-6-yl)azetidine-1-carboxylate], for which the IC50 in assay [1] was less than 100 nM. The 50% effective concentration (EC50) with A549 cells was less than 100 nM.

Take `Cc1ccc(CNC(=O)c2cn(CCCCc3cc4c(C#N)c(C5CC5)[nH]c4nn3)nn2)cn1` [Example 112, 1-(4-{5-cyano-6-cyclopropyl-7H-pyrrolo[2,3-c]pyridazin-3-yl}butyl)-N-[(6-methylpyridin-3-yl)methyl]-1H-1,2,3-triazole-4-carboxamide]: in assay [1], the 50% inhibitory concentration (IC50) was less than 100 nM. This compound registered a 50% effective concentration (EC50) with A549 cells of 500 to 5000 nM.

Turning to `O=C(NCc1ccccn1)c1cn(CCCCc2cc3c(-c4ccncc4)c(C4CC4)[nH]c3nn2)nn1` [Example 113, 1-{4-[6-cyclopropyl-5-(pyridin-4-yl)-7H-pyrrolo[2,3-c]pyridazin-3-yl]butyl}-N-(pyridin-2-ylmethyl)-1H-1,2,3-triazole-4-carboxamide], the concentration for half-maximal inhibition (IC50) in assay [1] was less than 100 nM. This compound also showed an EC50 in the assay on A549 cells of 500 to 5000 nM.

With `O=C(NCc1ccccn1)c1cn(CCCCc2cc3c(Cc4ccc(Cl)nc4)c(C4CC4)[nH]c3nn2)nn1` [Example 114, 1-(4-(5-((6-chloropyridin-3-yl)methyl)-6-cyclopropyl-7H-pyrrolo[2,3-c]pyridazin-3-yl)butyl)-N-(pyridin-2-ylmethyl)-1H-1,2,3-triazole-4-carboxamide 2,2,2-trifluoroacetate], in assay [1], the half-inhibitory concentration (IC50) was less than 100 nM. In addition, in the assay on A549 cells, the EC50 was 500 to 5000 nM.

Turning to `CCOC(=O)c1nnc(CCCCc2cc3cc(C4CC4)[nH]c3nn2)s1` [Example 115, ethyl 5-(4-{6-cyclopropyl-7H-pyrrolo[2,3-c]pyridazin-3-yl}butyl)-1,3,4-thiadiazole-2-carboxylate], in assay [1], the IC50 lay within 100 to 500 nM. The compound further returned an EC50 with A549 cells of 500 to 5000 nM.

In the case of `O=C(NCc1ccccn1)c1cn(CCCCc2cc3c(-c4cccc(Cl)c4)c(C4CC4)[nH]c3nn2)nn1` [Example 116, 1-{4-[5-(3-chlorophenyl)-6-cyclopropyl-7H-pyrrolo[2,3-c]pyridazin-3-yl]butyl}-N-(pyridin-2-ylmethyl)-1H-1,2,3-triazole-4-carboxamide], in assay [1], the concentration for half-maximal inhibition (IC50) is less than 100 nM. The same compound gave an EC50 with A549 cells of 500 to 5000 nM.

Turning to `O=C(NCc1ccccn1)c1cn(CCCCc2cc3c(-c4ccc(Cl)cc4)c(C4CC4)[nH]c3nn2)nn1` [Example 117, 1-{4-[5-(4-chlorophenyl)-6-cyclopropyl-7H-pyrrolo[2,3-c]pyridazin-3-yl]butyl}-N-(pyridin-2-ylmethyl)-1H-1,2,3-triazole-4-carboxamide], in assay [1], the concentration for half-maximal inhibition (IC50) was less than 100 nM. Besides, in the assay on A549 cells, the EC50 is 100 to 500 nM.

Regarding `O=C(NCc1cc(OC(F)(F)F)ccc1F)c1cn(CCCCc2cc3cc(C4CNC4)[nH]c3nn2)nn1` [Example 118, 1-{4-[6-(azetidin-3-yl)-7H-pyrrolo[2,3-c]pyridazin-3-yl]butyl}-N-{[2-fluoro-5-(trifluoromethoxy)phenyl]methyl}-1H-1,2,3-triazole-4-carboxamide], in assay [1], the IC50 is less than 100 nM. The same compound had an EC50 in the assay with A549 cells of 500 to 5000 nM.

Turning to `CC(=O)N1CC(c2cc3cc(CCCCn4cc(C(=O)NCc5cc(OC(F)(F)F)ccc5F)nn4)nnc3[nH]2)C1` [Example 119, 1-{4-[6-(1-acetylazetidin-3-yl)-7H-pyrrolo[2,3-c]pyridazin-3-yl]butyl}-N-{[2-fluoro-5-(trifluoromethoxy)phenyl]methyl}-1H-1,2,3-triazole-4-carboxamide], in assay [1], the concentration for half-maximal inhibition (IC50) is less than 100 nM. For the same compound, the concentration giving a half-maximal response (EC50) with A549 cells lay in the range of 500 to 5000 nM.

`O=C(NCc1ccccn1)c1cn(CCCCc2cc3c(-c4ccccc4F)c(C4CC4)[nH]c3nn2)nn1` [Example 120, 1-{4-[6-cyclopropyl-5-(2-fluorophenyl)-7H-pyrrolo[2,3-c]pyridazin-3-yl]butyl}-N-(pyridin-2-ylmethyl)-1H-1,2,3-triazole-4-carboxamide]: the IC50 in assay [1] is less than 100 nM. In the assay on A549 cells, the EC50 was in the range of 100 to 500 nM.

For the compound `COc1cccc(-c2c(C3CC3)[nH]c3nnc(CCCCn4cc(C(=O)NCc5ccccn5)nn4)cc23)c1` [Example 121, 1-{4-[6-cyclopropyl-5-(3-methoxyphenyl)-7H-pyrrolo[2,3-c]pyridazin-3-yl]butyl)-N-(pyridin-2-ylmethyl)-1H-1,2,3-triazole-4-carboxamide], the IC50 in assay [1] was less than 100 nM. This compound also came in with a concentration giving a half-maximal response (EC50) in the assay on A549 cells of 100 to 500 nM.

Turning to `Cc1ccc(CNC(=O)c2cn(CCCCc3cc4c(-c5ccccc5F)c(C5CC5)[nH]c4nn3)nn2)cn1` [Example 122, 1-{4-[6-cyclopropyl-5-(2-fluorophenyl)-7H-pyrrolo[2,3-c]pyridazin-3-yl]butyl}-N-[(6-methylpyridin-3-yl)methyl]-1H-1,2,3-triazole-4-carboxamide], the 50% inhibitory concentration (IC50) in assay [1] is less than 100 nM. In the assay on A549 cells, this compound yielded a half-maximal effective concentration (EC50) of less than 100 nM.

In the case of `O=C(NCc1ccccn1)c1cn(CCCCc2cc3c(-c4ccc(C(F)(F)F)cc4)c(C4CC4)[nH]c3nn2)nn1` [Example 123, 1-(4-{6-cyclopropyl-5-[4-(trifluoromethyl)phenyl]-7H-pyrrolo[2,3-c]pyridazin-3-yl}butyl)-N-(pyridin-2-ylmethyl)-1H-1,2,3-triazole-4-carboxamide], the half-inhibitory concentration (IC50) in assay [1] is less than 100 nM. This compound yielded a concentration giving a half-maximal response (EC50) with A549 cells of 100 to 500 nM.

One may read the IC50 as the concentration that inhibits the measured activity by half. As usually defined, the EC50 is the concentration at which the effect is half-maximal.
